The results in this text go back to patent US12590083B2, “Inhibitors of spinster homolog 2 (SPNS2) for use in therapy” (University of Virginia Patent Foundation, priority 2019, dated 2026).

Where a name gives a salt, the structure may show the parent alone.

This assay deals with T1, human SPNS2 (Homo sapiens, UniProt Q8IVW8).
T1 construct: expressed in transfected cells; host or cells: Saccharomyces cerevisiae strain with forced expression of a mammalian SphK and human SPNS2
T1 sequence (Q8IVW8 1-549): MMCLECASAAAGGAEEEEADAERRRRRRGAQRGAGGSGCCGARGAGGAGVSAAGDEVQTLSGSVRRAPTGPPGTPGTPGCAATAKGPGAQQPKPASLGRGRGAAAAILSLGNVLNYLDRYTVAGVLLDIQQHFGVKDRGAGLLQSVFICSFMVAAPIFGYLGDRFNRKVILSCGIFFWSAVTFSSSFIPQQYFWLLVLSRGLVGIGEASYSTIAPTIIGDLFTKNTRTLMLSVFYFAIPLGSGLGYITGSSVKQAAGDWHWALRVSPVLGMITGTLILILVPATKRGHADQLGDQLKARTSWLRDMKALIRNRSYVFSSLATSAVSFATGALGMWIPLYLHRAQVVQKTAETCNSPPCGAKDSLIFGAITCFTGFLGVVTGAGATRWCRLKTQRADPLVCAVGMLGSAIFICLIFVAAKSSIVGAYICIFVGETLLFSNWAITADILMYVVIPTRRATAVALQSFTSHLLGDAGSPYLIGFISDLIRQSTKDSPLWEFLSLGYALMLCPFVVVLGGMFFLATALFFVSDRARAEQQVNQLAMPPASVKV
The assay can be described thus: S1P transporter assay: growth of S. cerevisiae strain with forced expression of a mammalian SphK and human SPNS2. In kind it is cell-based. Particulars: in vitro inhibition of SPNS2; growth of S. cerevisiae strain expressing mammalian SphK and human SPNS2; compounds as their pharmaceutical salts. In short, it runs like this:
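S. cerevisiae strain with forced expression of a mammalian SphK and human SPNS2; since excess phospho-LCB inhibits yeast growth, SPNS2 inhibitors reduce growth of this strain. Inhibition measured in vitro as decreased strain growth.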

As for `CCCCCCCCCCOc1ccc(-c2noc([C@@H]3CCCN(C(=N)N)C3)n2)cc1C(F)(F)F` [Compound 23f, (R)-3-(3-(4-(decyloxy)-3-(trifluoromethyl)phenyl)-1,2,4-oxadiazol-5-yl)piperidine-1-carboximidamide hydrochloride], the IC50 is no more than 2000 nM.
Take `CC(C)(C)c1cccc(Nc2ccc(-c3noc([C@@H]4CCNC4)n3)cn2)c1` [Compound 13g, (R)—N-(3-(tert-butyl)phenyl)-5-(5-(pyrrolidin-3-yl)-1,2,4-oxadiazol-3-yl)pyridin-2-amine hydrochloride]: the 50% inhibitory concentration (IC50) was greater than 2000 nM.
For `CCCCCCCCCCc1ccc(-c2noc([C@@H]3CCNC3)n2)cc1` [Compound 5g, (R)-3-(3-(4-decylphenyl)-1,2,4-oxadiazol-5-yl)pyrrolidin-1-ium 2,2,2-trifluoroacetate], the half-inhibitory concentration (IC50) is greater than 2000 nM.
`CCCCCCCCCCc1ccc(-c2noc(C[C@@H]3CCN(C(=N)N)C3)n2)cc1C(F)(F)F` [Compound 30g, (S)-3-((3-(4-decyl-3-(trifluoromethyl)phenyl)-1,2,4-oxadiazol-5-yl)methyl)pyrrolidine-1-carboximidamide hydrochloride]: the IC50 was greater than 2000 nM.
Take `C/C(=N\OCc1ccc2c(c1)C(C)(C)CCC2(C)C)c1ccc(-c2noc([C@@H]3CCNC3)n2)cc1` [Compound 38h, (R)-1-(4-(5-(pyrrolidin-3-yl)-1,2,4-oxadiazol-3-yl)phenyl)ethan-1-one O-((5,5,8,8-tetramethyl-5,6,7,8-tetrahydronaphthalen-2-yl)methyl) oxime hydrochloride]: the IC50 was greater than 2000 nM.
For `CCCCCCCCCc1ccc(-c2noc([C@@H]3CCCN(C(=N)N)C3)n2)cc1` [Compound 7yb, (R)-3-(3-(4-nonylphenyl)-1,2,4-oxadiazol-5-yl)piperidine-1-carboximidamide hydrochloride], the 50% inhibitory concentration (IC50) was no more than 2000 nM.
Take `CCCCCCCCNc1ccc(-c2noc([C@@H]3CCN(C(=N)N)C3)n2)cn1` [Compound 15b, (R)-3-(3-(6-(octylamino)pyridin-3-yl)-1,2,4-oxadiazol-5-yl)pyrrolidine-1-carboximidamide hydrochloride]: the 50% inhibitory concentration (IC50) was greater than 2000 nM.
Turning to `CCCCCCCCOc1ccc(-c2noc([C@@H]3CCCN(C(=N)N)C3)n2)cc1C(F)(F)F` [Compound 23d, (R)-3-(3-(4-(octyloxy)-3-(trifluoromethyl)phenyl)-1,2,4-oxadiazol-5-yl)piperidine-1-carboximidamide hydrochloride], the IC50 was greater than 2000 nM.
In the case of `CCCCCCCCCCc1ccc(Nc2ccc(-c3noc([C@@H]4CCNC4)n3)cn2)cc1` [Compound 13h, (R)—N-(4-decylphenyl)-5-(5-(pyrrolidin-3-yl)-1,2,4-oxadiazol-3-yl)pyridin-2-amine hydrochloride], the 50% inhibitory concentration (IC50) was greater than 2000 nM.
On to `CCCCCCCCNC(=O)c1ccc(-c2noc([C@@H]3CCNC3)n2)cc1` [Compound 38p, (R)—N-octyl-4-(5-(pyrrolidin-3-yl)-1,2,4-oxadiazol-3-yl)benzamide hydrochloride], for which the half-maximal inhibitory concentration (IC50) was greater than 2000 nM.
As to `C/C(=N\OCc1ccc(-c2ccccc2)cc1)c1ccc(-c2noc([C@@H]3CCN(C(=N)N)C3)n2)cc1` [Compound 40d, (R)-3-(3-(4-(1-(([1,1′-biphenyl]-4-ylmethoxy)imino)ethyl)phenyl)-1,2,4-oxadiazol-5-yl)pyrrolidine-1-carboximidamide hydrochloride], the 50% inhibitory concentration (IC50) was no more than 2000 nM.
Regarding `CCCCCCCOc1ccc(-c2noc([C@@H]3CCCN(C(=N)N)C3)n2)cc1C(F)(F)F` [Compound 23c, (R)-3-(3-(4-(heptyloxy)-3-(trifluoromethyl)phenyl)-1,2,4-oxadiazol-5-yl)piperidine-1-carboximidamide hydrochloride], the concentration for half-maximal inhibition (IC50) was no more than 2000 nM.
In the case of `C/C(=N\OCCCCc1ccccc1)c1ccc(-c2noc([C@@H]3CCNC3)n2)cc1` [Compound 38a, (R)-1-(4-(5-(pyrrolidin-3-yl)-1,2,4-oxadiazol-3-yl)phenyl)ethan-1-one O-(4-phenylbutyl) oxime hydrochloride], the IC50 is no more than 2000 nM.
For the compound `c1cc(N2CCCCC2)ncc1-c1noc([C@@H]2CCNC2)n1` [Compound 13a, (R)-3-(6-(piperidin-1-yl)pyridin-3-yl)-5-(pyrrolidin-3-yl)-1,2,4-oxadiazole hydrochloride], the concentration for half-maximal inhibition (IC50) was greater than 2000 nM.
In the case of `CCCCCO/N=C(\C)c1ccc(-c2noc([C@@H]3CCNC3)n2)cc1` [Compound 38l, (R)-1-(4-(5-(pyrrolidin-3-yl)-1,2,4-oxadiazol-3-yl)phenyl)ethan-1-one O-pentyl oxime hydrochloride], the IC50 was greater than 2000 nM.
Consider `c1ccc(CCCOc2ccc(-c3noc(C4CNC4)n3)cc2)cc1` [Compound 13j, 5-(azetidin-3-yl)-3-(4-(3-phenylpropoxy)phenyl)-1,2,4-oxadiazole hydrochloride], for which the half-inhibitory concentration (IC50) was greater than 2000 nM.
